Experimental findings from ChEMBL document CHEMBL1201862, “PubChem BioAssay data set” (2004) are described below.

Test systems include SR; KM12; SN12C; HOP-62; NCI/ADR-RES; NCI-H522; T47D; UACC-257; NCI-H226; SNB-75; Malme-3M; MDA-MB-435; OVCAR-3; HCT-116; 786-0; SK-OV-3; MDA-N; ACHN; EKVX; UO-31.
What all share (experiment): NCI-60 cell line screen, 48 h

Structures are written as SMILES.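 Method: 48-hour compound exposure of cells in 96-well plates, five concentrations, linear interpolation of endpoints. GI50 is the concentration that inhibits growth by half.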 Active and inactive are the calls of the source. No stated cut-off is given here; in the data, active = GI50 up to about 1.1 µM and inactive = higher. Bounds are passed on as bounds.

As for `O=C1c2ccccc2C(=O)c2sc(Nc3cc(Cl)ccc3Cl)nc21`, the GI50 was 2.52 µM (inactive) in the experiment on SR; 12.2 µM (inactive) with KM12; 2.08 µM (inactive) in the experiment on SN12C; 15 µM (inactive) in the experiment with HOP-62; 2.63 µM (inactive) in the experiment with NCI/ADR-RES; 2.95 µM (inactive) in the experiment with NCI-H522. In addition, the GI50 is 3.99 µM (inactive) in the experiment on T47D; 2.51 µM (inactive) in the experiment on UACC-257; 17.6 µM (inactive) in the experiment on NCI-H226; 15.1 µM (inactive) in the experiment with SNB-75; 1.44 µM (inactive) with Malme-3M; 2.01 µM (inactive) in the experiment on MDA-MB-435. Further, the GI50 in the experiment on OVCAR-3 is 0.74 µM (active); in the experiment with HCT-116, 3.3 µM (inactive); with 786-0, 3.61 µM (inactive); in the experiment with SK-OV-3, 16 µM (inactive); in the experiment with MDA-N, 1.82 µM (inactive); in the experiment on ACHN, 5.3 µM (inactive). In addition, the GI50 with EKVX was 12.9 µM (inactive); in the experiment with UO-31, 6.03 µM (inactive).
Turning to `O=P1(C(O)c2ccccc2)N(Cc2ccccc2)[C@@H]2CCCC[C@H]2N1Cc1ccccc1` (some centres not stated), the GI50 is 24.3 µM (inactive) in the experiment on SR; 37.3 µM (inactive) with KM12; 20.9 µM (inactive) with SN12C; 40.8 µM (inactive) in the experiment on HOP-62; 26.3 µM (inactive) in the experiment on NCI/ADR-RES; 20.7 µM (inactive) in the experiment on NCI-H522. Moreover, the GI50 with T47D was 21.9 µM (inactive); in the experiment on UACC-257 it was 21.4 µM (inactive); with NCI-H226, 24.8 µM (inactive); with SNB-75, 18.4 µM (inactive); in the experiment with Malme-3M it was 30.7 µM (inactive); in the experiment with MDA-MB-435, 23.2 µM (inactive). The GI50 in the experiment with OVCAR-3 is 31.2 µM (inactive); in the experiment with HCT-116, 27.4 µM (inactive); with 786-0 it was 20.8 µM (inactive); in the experiment on SK-OV-3, 58.2 µM (inactive); in the experiment on MDA-N, 31.9 µM (inactive); in the experiment with ACHN, 30.8 µM (inactive). The values for the GI50 in the experiment on EKVX and in the experiment on UO-31 were 30.5 µM (inactive) and 33 µM (inactive), respectively.
`CCC(=O)Nc1ccc(N2C(=O)/C(=C/c3ccc(O)c(OC)c3)N=C2c2ccccc2)cc1`: the GI50 with SR was 13.2 µM (inactive); in the experiment on KM12 it was 33.7 µM (inactive); in the experiment on SN12C, 54.5 µM (inactive); with HOP-62, 46.6 µM (inactive); in the experiment on NCI/ADR-RES, 70.6 µM (inactive); in the experiment on NCI-H522, 37.6 µM (inactive). Further, the GI50 with T47D is 24 µM (inactive); in the experiment on UACC-257 it was 26.7 µM (inactive); in the experiment with NCI-H226, 19.5 µM (inactive); with SNB-75, > 100 µM (inactive); in the experiment with Malme-3M, 29.8 µM (inactive); with MDA-MB-435, 29.5 µM (inactive). Also, the GI50 with OVCAR-3 is 28.3 µM (inactive); in the experiment on HCT-116 it was 34.4 µM (inactive); with 786-0 it was 24 µM (inactive); in the experiment with SK-OV-3, 31 µM (inactive); in the experiment on MDA-N, 31.3 µM (inactive); in the experiment with ACHN, 23.3 µM (inactive). Besides, the figures for the GI50 with EKVX and in the experiment on UO-31 were 17.8 µM (inactive) and 25.5 µM (inactive), respectively.
As to `Cc1ccc(C(C)C)c(OCC(=O)N/N=C/c2c[nH]c3ccc(Br)cc23)c1`, the GI50 with SR is 0.698 µM (active); in the experiment with KM12, 1.41 µM (inactive); in the experiment on SN12C it was 3.27 µM (inactive); in the experiment with HOP-62, 5.79 µM (inactive); in the experiment on NCI/ADR-RES, 1.57 µM (inactive); with NCI-H522, 1.43 µM (inactive). Besides, the GI50 in the experiment with T47D was 5.62 µM (inactive); in the experiment on UACC-257 it was 2.87 µM (inactive); in the experiment with SNB-75 it was 2.13 µM (inactive); in the experiment with Malme-3M, 6.3 µM (inactive); with MDA-MB-435 it was 0.904 µM (active); with OVCAR-3, 2.19 µM (inactive). Also, the GI50 in the experiment on HCT-116 is 3.15 µM (inactive); in the experiment on 786-0, 3.42 µM (inactive); in the experiment with SK-OV-3, 2.58 µM (inactive); in the experiment on MDA-N it was 0.923 µM (active); in the experiment on ACHN it was 4.85 µM (inactive); in the experiment with EKVX it was 2.86 µM (inactive). The GI50 in the experiment on UO-31 is 3.49 µM (inactive).
With `CC1(C)N=c2c(ncn2-c2ccccc2)=C(C(N)=O)N1`, the GI50 in the experiment with SR, in the experiment with KM12, in the experiment with SN12C, in the experiment with HOP-62, in the experiment with NCI/ADR-RES and in the experiment with NCI-H522 was > 100 µM (inactive) throughout. The GI50 with T47D, with UACC-257, with NCI-H226, in the experiment with SNB-75, in the experiment with Malme-3M and in the experiment with MDA-MB-435 was > 100 µM (inactive) throughout. In addition, the GI50 in the experiment on OVCAR-3, in the experiment on HCT-116, with 786-0, in the experiment on SK-OV-3, with MDA-N and in the experiment on ACHN was > 100 µM (inactive) throughout. Besides, the GI50 in the experiment on EKVX was > 100 µM (inactive).
Take `CO[P@@]1(=O)O[C@@H](c2ccccc2)[C@H](O)[C@]1(O)c1ccccc1`: the GI50 with SR, with KM12, in the experiment with SN12C, in the experiment on NCI/ADR-RES, with NCI-H522 and in the experiment with T47D was > 100 µM (inactive) throughout. Also, the GI50 with UACC-257, in the experiment on NCI-H226, in the experiment on SNB-75, in the experiment on Malme-3M, in the experiment on MDA-MB-435 and in the experiment on OVCAR-3 was > 100 µM (inactive) in each case. Also, the GI50 is > 100 µM (inactive) in the experiment on HCT-116; > 100 µM (inactive) in the experiment with 786-0; > 100 µM (inactive) with SK-OV-3; > 100 µM (inactive) with MDA-N; > 100 µM (inactive) in the experiment with ACHN; 24.9 µM (inactive) with EKVX. Moreover, in the experiment with UO-31, the GI50 was > 100 µM (inactive).
`CCOC(=O)c1cc2c3c(c(C(C)=O)c(O)c2[nH]1)N(CC(C)CC)CC3` (configuration not stated): the GI50 in the experiment with SR was 27.4 µM (inactive); in the experiment on KM12 it was 56.4 µM (inactive); in the experiment on SN12C, > 100 µM (inactive); with NCI/ADR-RES, 29.6 µM (inactive); in the experiment on NCI-H522, 24.2 µM (inactive); with T47D, 21.9 µM (inactive). Also, the GI50 with UACC-257 is 68.7 µM (inactive); in the experiment on NCI-H226, 41.5 µM (inactive); in the experiment with SNB-75, 30.7 µM (inactive); in the experiment with Malme-3M it was 21.4 µM (inactive); in the experiment with MDA-MB-435, 44.3 µM (inactive); in the experiment with HCT-116, 42.3 µM (inactive). Moreover, the GI50 in the experiment with 786-0 is 49.2 µM (inactive); with SK-OV-3 it was 60.8 µM (inactive); in the experiment with MDA-N it was 35.7 µM (inactive); in the experiment on ACHN, > 100 µM (inactive); in the experiment on EKVX it was 38.9 µM (inactive); with UO-31 it was 83.4 µM (inactive).
Regarding `CN(C(=O)c1ccc2c(c1)sc1c(=O)n(C)c3ccccc3c12)c1ccccc1`, the GI50 in the experiment on SR, with KM12, in the experiment with SN12C, in the experiment on NCI/ADR-RES, in the experiment on NCI-H522 and in the experiment on T47D was > 100 µM (inactive) throughout. Further, the GI50 with UACC-257, with NCI-H226, with SNB-75, with Malme-3M, in the experiment on MDA-MB-435 and in the experiment with OVCAR-3 was > 100 µM (inactive) in each case. Moreover, the GI50 in the experiment on HCT-116 is > 100 µM (inactive); in the experiment on 786-0, 59.7 µM (inactive); in the experiment on SK-OV-3, > 100 µM (inactive); in the experiment with MDA-N it was > 100 µM (inactive); with ACHN, 33.7 µM (inactive); in the experiment on EKVX, > 100 µM (inactive). In addition, the GI50 in the experiment on UO-31 was 37.7 µM (inactive).
As for `C=CCn1c(N)c(C#N)c(C#N)c1CCC`, the GI50 in the experiment with SR is 22.5 µM (inactive); with KM12 it was > 100 µM (inactive); with SN12C it was > 100 µM (inactive); in the experiment on HOP-62, > 100 µM (inactive); in the experiment with NCI/ADR-RES, > 100 µM (inactive); in the experiment with NCI-H522 it was > 100 µM (inactive). Besides, the GI50 with T47D is > 100 µM (inactive); with UACC-257, > 100 µM (inactive); in the experiment on NCI-H226, > 100 µM (inactive); in the experiment on SNB-75 it was 25 µM (inactive); in the experiment on Malme-3M, > 100 µM (inactive); with MDA-MB-435 it was > 100 µM (inactive). Besides, the GI50 with OVCAR-3 is 74.6 µM (inactive); with 786-0, > 100 µM (inactive); in the experiment on SK-OV-3 it was > 100 µM (inactive); with MDA-N it was > 100 µM (inactive); with ACHN, > 100 µM (inactive); in the experiment with EKVX, 42.7 µM (inactive). Further, the GI50 with UO-31 was > 100 µM (inactive).
In the case of `O=C(O)C1(CC(CCCN2CCCCC2)c2ccccc2)CCCC1` (configuration not stated), the GI50 in the experiment on SR, in the experiment with KM12, in the experiment with SN12C, in the experiment with HOP-62, in the experiment on NCI/ADR-RES and with NCI-H522 was > 100 µM (inactive) in each case. The GI50 is > 100 µM (inactive) in the experiment on T47D; > 100 µM (inactive) in the experiment on NCI-H226; > 100 µM (inactive) in the experiment with SNB-75; > 100 µM (inactive) in the experiment with Malme-3M; > 100 µM (inactive) in the experiment with MDA-MB-435; 41.8 µM (inactive) in the experiment with OVCAR-3. Also, the GI50 in the experiment with HCT-116, in the experiment with 786-0, in the experiment on SK-OV-3, in the experiment with MDA-N, with ACHN and in the experiment on EKVX was > 100 µM (inactive) each time. Further, the GI50 in the experiment with UO-31 is > 100 µM (inactive).
